In patent publication US20240024273A1, “TOPICAL ADMINISTRATION OF 2-(DIETHYLAMINO)ETHYL 2-(4-ISOBUTYLPHENYL)PROPRIONATE FOR TREATMENT OF DISEASES” (TECHFIELDS PHARMA CO., LTD., priority 2020, published 2024):

Tests used:
[1] = tested on: Mild to Moderate Osteoarthritis of the Knee; test: Phase 2 study: use of rescue medication (paracetamol); type: in vivo, human; conditions: for Percentage of patients using rescue medication: only for knee pain
Procedure: Subjects taking nonsteroidal anti-inflammatory drugs (NSAID) or other analgesics may enroll in the trial, but will discontinue any analgesic therapy for the duration of the study, starting at least 4 days (or 5 half lives, whichever is longer) prior to administration of the first dose of study medication (i.e., for an analgesic washout period before Day 1). Subjects will be allowed to take rescue medication (up to six 325 mg tablets [total of 1950 mg] of acetaminophen per day; provided by the Sponsor) for residual knee or other body pain starting 4 days (or 5 half lives, whichever is longer) prior to administration of the first dose of study medication except during the 24 hours prior to Baseline (Day 1), Week 2, Week 4, Week 8, Week 12/end of study (EOS), and Follow up assessments.
Subjects will record the following information in a Daily Diary starting at Screening: the amount of knee pain in the target knee while walking during the preceding 24 hours (using a 100 mm visual analog scale [VAS]), the times and number of sprays for each administration of study medication, the times when the subject washes his/her knees and/or takes a shower, the number of tablets of rescue medication taken that day and the times taken, the reason for taking the rescue medication (e.g., knee pain, headache, low back pain), any other concomitant medications taken that day, and any AEs occurring that day.
3.9.3. Exploratory Efficacy Endpoints: • 1. Subject's global assessment of disease status of the target knee at 2, 4, 8, and 12 weeks of treatment; • 2. Investigator's global assessment of disease status of the target knee at 2, 4, 8, and 12 weeks of treatment; • 3. Subject's global assessment of response to therapy of the target knee at 2, 4, 8, and 12 weeks of treatment; • 4. Investigator's global assessment of response to therapy of the target knee at 2, 4, 8, and 12 weeks of treatment; • 5. Change from Baseline over time in VAS pain scores for the target knee from Daily Diary data; • 6. Amount of rescue medication (acetaminophen) consumed per day for target knee pain.
Zeidler thought that paracetamol as rescue medication in nearly all OA trials may be a missing link to explain at least partially the large placebo response in OA trials. (Henning Zeidler, Paracetamol and the Placebo Effect in Osteoarthritis Trials: A Missing Link? Pain Research and Treatment, Volume 2011, 1-6.) From published data, the difference of the used amount of paracetamol is very small between the placebo and active drug cohorts. […] (T. J. Schnitzer, A. Kivitz, H. Frayssinet, and B. Duquesroix, “Efficacy and safety of naproxcinod in the treatment of patients with osteoarthritis of the knee: a 13-week prospective, randomized, multicenter study.” Osteoarthritis and Cartilage, vol. 18, no. 5, pp. 629-639, 2010.) In this trial, NSAIDs or any analgesic therapy was discontinued for the duration of the study, starting at least 14 days (or 5 half lives, whichever is longer) prior to administration of the first dose of study medication (ie, for an analgesic washout period before Day 1). Subjects were allowed to take rescue medication (up to six 325 mg tablets [total of 1950 mg] of acetaminophen per day; provided by the Sponsor) for residual knee or other body pain starting at least 4 days (or 5 half lives, whichever is longer) prior to administration of the first dose of study medication except during the 24 hours prior to Baseline (Day 1), Week 2, Week 4, Week 8, Week 12/end of study (EOS), and Follow-up assessments.

rats = test: Acute dermal maximum tolerated dose study; type: in vivo; conditions: single dermal dose 1000 mg/kg
[2] = Acute dermal maximum tolerated dose study; type: in vivo, Rats; conditions: both sexes, rat, in vivo, topical or ocular, 1000 mg/kg; once, dermal; male and female rats
[3] = 8.75 mg/knee (BID), Day −2 to day −5 (baseline)
[4] = 17.5 mg/knee (BID), Day −2 to day −5 (baseline)
[5] = 35 mg/knee (BID), Day −2 to day −5 (baseline)
[6] = for all pain and other conditions, 8.75 mg/knee (BID), Week 2
[7] = for all pain and other conditions, 8.75 mg/knee (BID), Week 4
[8] = for all pain and other conditions, 8.75 mg/knee (BID), Week 8
[9] = for all pain and other conditions, 8.75 mg/knee (BID), Week 12
[10] = for all pain and other conditions, 17.5 mg/knee (BID), Week 2
[11] = for all pain and other conditions, 17.5 mg/knee (BID), Week 4
[12] = for all pain and other conditions, 17.5 mg/knee (BID), Week 8
[13] = for all pain and other conditions, 17.5 mg/knee (BID), Week 12
[14] = for all pain and other conditions, 35 mg/knee (BID), Week 2
[15] = for all pain and other conditions, 35 mg/knee (BID), Week 4
[16] = for all pain and other conditions, 35 mg/knee (BID), Week 8
[17] = for all pain and other conditions, 35 mg/knee (BID), Week 12

Compound: CCN(CC)CCOC(=O)C(C)c1ccc(CC(C)C)cc1 (centres unmarked) [2-(diethylamino)ethyl 2-(4-isobutylphenyl)propionate]
- patients using rescue medication at the end of the study ([1]; 8.75 mg/knee): 17.3%
- Rescue medication (paracetamol) only for knee pain, daily amount [1, 3]: 349 mg/day/patient
- Rescue medication (paracetamol) only for knee pain, daily amount ([1]; 8.75 mg/knee (BID), Week 2): 216 mg/day/patient
- Rescue medication (paracetamol), % of decrease from baseline ([1]; 8.75 mg/knee (BID), Week 2): 38.1%
- Rescue medication (paracetamol) only for knee pain, daily amount ([1]; 8.75 mg/knee (BID), Week 4): 167 mg/day/patient
- Rescue medication (paracetamol), % of decrease from baseline ([1]; 8.75 mg/knee (BID), Week 4): 52.1%
- Rescue medication (paracetamol) only for knee pain, daily amount ([1]; 8.75 mg/knee (BID), Week 8): 166 mg/day/patient
- Rescue medication (paracetamol), % of decrease from baseline ([1]; 8.75 mg/knee (BID), Week 8): 52.4%
- Rescue medication (paracetamol) only for knee pain, daily amount ([1]; 8.75 mg/knee (BID), Week 12): 159 mg/day/patient
- Rescue medication (paracetamol), % of decrease from baseline ([1]; 8.75 mg/knee (BID), Week 12): 54.4%
- patients using rescue medication at the end of the study ([1]; 17.5 mg/knee): 6.5%
- Rescue medication (paracetamol) only for knee pain, daily amount [1, 4]: 243 mg/day/patient
- Rescue medication (paracetamol) only for knee pain, daily amount ([1]; 17.5 mg/knee (BID), Week 2): 86 mg/day/patient
- Rescue medication (paracetamol), % of decrease from baseline ([1]; 17.5 mg/knee (BID), Week 2): 64.6%
- Rescue medication (paracetamol) only for knee pain, daily amount ([1]; 17.5 mg/knee (BID), Week 4): 67 mg/day/patient
- Rescue medication (paracetamol), % of decrease from baseline ([1]; 17.5 mg/knee (BID), Week 4): 72.4%
- Rescue medication (paracetamol) only for knee pain, daily amount ([1]; 17.5 mg/knee (BID), Week 8): 54 mg/day/patient
- Rescue medication (paracetamol), % of decrease from baseline ([1]; 17.5 mg/knee (BID), Week 8): 77.8%
- Rescue medication (paracetamol) only for knee pain, daily amount ([1]; 17.5 mg/knee (BID), Week 12): 56 mg/day/patient
- Rescue medication (paracetamol), % of decrease from baseline ([1]; 17.5 mg/knee (BID), Week 12): 77.0%
- use of rescue medication for all pain and other conditions ([1]; 17.5 mg/knee and 35 mg/knee groups, week 12): less than 100 mg/day/patient
- patients using rescue medication at the end of the study ([1]; 35 mg/knee): 5.8%
- Rescue medication (paracetamol) only for knee pain, daily amount [1, 5]: 291 mg/day/patient
- Rescue medication (paracetamol) only for knee pain, daily amount ([1]; 35 mg/knee (BID), Week 2): 98 mg/day/patient
- Rescue medication (paracetamol), % of decrease from baseline ([1]; 35 mg/knee (BID), Week 2): 66.3%
- Rescue medication (paracetamol) only for knee pain, daily amount ([1]; 35 mg/knee (BID), Week 4): 88 mg/day/patient
- Rescue medication (paracetamol), % of decrease from baseline ([1]; 35 mg/knee (BID), Week 4): 69.8%
- Rescue medication (paracetamol) only for knee pain, daily amount ([1]; 35 mg/knee (BID), Week 8): 54 mg/day/patient
- Rescue medication (paracetamol), % of decrease from baseline ([1]; 35 mg/knee (BID), Week 8): 81.4%
- Rescue medication (paracetamol) only for knee pain, daily amount ([1]; 35 mg/knee (BID), Week 12): 44 mg/day/patient
- Rescue medication (paracetamol), % of decrease from baseline ([1]; 35 mg/knee (BID), Week 12): 84.9%
- Daily amount of rescue medication (paracetamol) ([1]; for all pain and other conditions, 8.75 mg/knee (BID), Day −2 to day −5 (baseline)): 364 mg/day/patient
- Daily amount of rescue medication (paracetamol) [1, 6]: 263 mg/day/patient
- Rescue medication (paracetamol), % of decrease from baseline [1, 6]: 27.7%
- Daily amount of rescue medication (paracetamol) [1, 7]: 208 mg/day/patient
- Rescue medication (paracetamol), % of decrease from baseline [1, 7]: 42.9%
- Daily amount of rescue medication (paracetamol) [1, 8]: 210 mg/day/patient
- Rescue medication (paracetamol), % of decrease from baseline [1, 8]: 42.3%
- Daily amount of rescue medication (paracetamol) [1, 9]: 209 mg/day/patient
- Rescue medication (paracetamol), % of decrease from baseline [1, 9]: 42.6%
- Daily amount of rescue medication (paracetamol) ([1]; for all pain and other conditions, 17.5 mg/knee (BID), Day −2 to day −5 (baseline)): 278 mg/day/patient
- Daily amount of rescue medication (paracetamol) [1, 10]: 136 mg/day/patient
- Rescue medication (paracetamol), % of decrease from baseline [1, 10]: 51.1%
- Daily amount of rescue medication (paracetamol) [1, 11]: 115 mg/day/patient
- Rescue medication (paracetamol), % of decrease from baseline [1, 11]: 58.6%
- Daily amount of rescue medication (paracetamol) [1, 12]: 87 mg/day/patient
- Rescue medication (paracetamol), % of decrease from baseline [1, 12]: 68.7%
- Daily amount of rescue medication (paracetamol) [1, 13]: 69 mg/day/patient
- Rescue medication (paracetamol), % of decrease from baseline [1, 13]: 75.2%
- Daily amount of rescue medication (paracetamol) ([1]; for all pain and other conditions, 35 mg/knee (BID), Day −2 to day −5 (baseline)): 310 mg/day/patient
- Daily amount of rescue medication (paracetamol) [1, 14]: 171 mg/day/patient
- Rescue medication (paracetamol), % of decrease from baseline [1, 14]: 44.8%
- Daily amount of rescue medication (paracetamol) [1, 15]: 158 mg/day/patient
- Rescue medication (paracetamol), % of decrease from baseline [1, 15]: 49.0%
- Daily amount of rescue medication (paracetamol) [1, 16]: 111 mg/day/patient
- Rescue medication (paracetamol), % of decrease from baseline [1, 16]: 64.2%
- Daily amount of rescue medication (paracetamol) [1, 17]: 94 mg/day/patient
- Rescue medication (paracetamol), % of decrease from baseline [1, 17]: 69.7%
- Daily amount of rescue medication (paracetamol) ([1]; for other conditions excluding knee pain, 8.75 mg/knee (BID), Day −2 to day −5 (baseline)): 15 mg/day/patient
- Daily amount of rescue medication (paracetamol) ([1]; for other conditions excluding knee pain, 8.75 mg/knee (BID), Week 2): 47 mg/day/patient
- Daily amount of rescue medication (paracetamol) ([1]; for other conditions excluding knee pain, 8.75 mg/knee (BID), Week 4): 41 mg/day/patient
- Daily amount of rescue medication (paracetamol) ([1]; for other conditions excluding knee pain, 8.75 mg/knee (BID), Week 8): 44 mg/day/patient
- Daily amount of rescue medication (paracetamol) ([1]; for other conditions excluding knee pain, 8.75 mg/knee (BID), Week 12): 50 mg/day/patient
- Daily amount of rescue medication (paracetamol) ([1]; for other conditions excluding knee pain, 17.5 mg/knee (BID), Day −2 to day −5 (baseline)): 35 mg/day/patient
- Daily amount of rescue medication (paracetamol) ([1]; for other conditions excluding knee pain, 17.5 mg/knee (BID), Week 2): 50 mg/day/patient
- Daily amount of rescue medication (paracetamol) ([1]; for other conditions excluding knee pain, 17.5 mg/knee (BID), Week 4): 48 mg/day/patient
- Daily amount of rescue medication (paracetamol) ([1]; for other conditions excluding knee pain, 17.5 mg/knee (BID), Week 8): 33 mg/day/patient
- Daily amount of rescue medication (paracetamol) ([1]; for other conditions excluding knee pain, 17.5 mg/knee (BID), Week 12): 13 mg/day/patient
- Daily amount of rescue medication (paracetamol) ([1]; for other conditions excluding knee pain, 35 mg/knee (BID), Day −2 to day −5 (baseline)): 19 mg/day/patient
- Daily amount of rescue medication (paracetamol) ([1]; for other conditions excluding knee pain, 35 mg/knee (BID), Week 2): 73 mg/day/patient
- Daily amount of rescue medication (paracetamol) ([1]; for other conditions excluding knee pain, 35 mg/knee (BID), Week 4): 70 mg/day/patient
- Daily amount of rescue medication (paracetamol) ([1]; for other conditions excluding knee pain, 35 mg/knee (BID), Week 8): 57 mg/day/patient
- Daily amount of rescue medication (paracetamol) ([1]; for other conditions excluding knee pain, 35 mg/knee (BID), Week 12): 50 mg/day/patient
- maximum decrease of rescue medication for all pain, pre-treatment to week 12 ([1]; in vivo): up to 75%
- Percentage of patients using rescue medication [1, 3]: 35.3%
- Percentage of patients using rescue medication ([1]; 8.75 mg/knee (BID), Week 2): 23.6%
- Percentage of patients using rescue medication ([1]; 8.75 mg/knee (BID), Week 4): 18.4%
- Percentage of patients using rescue medication ([1]; 8.75 mg/knee (BID), Week 8): 17.1%
- Percentage of patients using rescue medication ([1]; 8.75 mg/knee (BID), Week 12): 16.3%
- Percentage of patients using rescue medication [1, 4]: 24.0%
- Percentage of patients using rescue medication ([1]; 17.5 mg/knee (BID), Week 2): 11.3%
- Percentage of patients using rescue medication ([1]; 17.5 mg/knee (BID), Week 4): 8.4%
- Percentage of patients using rescue medication ([1]; 17.5 mg/knee (BID), Week 8): 7.2%
- Percentage of patients using rescue medication ([1]; 17.5 mg/knee (BID), Week 12): 6.5%
- Percentage of patients using rescue medication [1, 5]: 34.8%
- Percentage of patients using rescue medication ([1]; 35 mg/knee (BID), Week 2): 12.4%
- Percentage of patients using rescue medication ([1]; 35 mg/knee (BID), Week 4): 11.0%
- Percentage of patients using rescue medication ([1]; 35 mg/knee (BID), Week 8): 7.6%
- Percentage of patients using rescue medication ([1]; 35 mg/knee (BID), Week 12): 5.8%
- maximum decrease in the use of rescue medication, paracetamol ([1]; pre-treatment to week 12): 84.9%
- tolerability (rats): 2-(4-isobutylphenyl)propionate to rats at 1000 mg/kg was well tolerated
- MTD [2]: > 1000 mg/kg
